From US20250186448A1 (Mezzion Pharma Co., Ltd., priority 2021, published 2025)
Values joined by “and” are separate entries in the source; they are usually repeats but may differ in a detail not shown here. Identical values can stand only once. “Also recorded” adds a separate entry of the source.

Assays:
[1] = tested on: adolescents with Fontan physiology; test: FUEL trial: resting data and cardiopulmonary exercise test (CPET), cycle ergometer ramp protocol; format: in vivo, human; settings: for Anaerobic threshold VE/VCO2 / Anaerobic threshold oxygen consumption / Anaerobic threshold work / Peak exercise heart rate / Peak exercise minute ventilation / Peak exercise oxygen consumption / Peak exercise oxygen saturation / Peak exercise respiratory rate / Peak exercise work rate / Resting diastolic blood pressure / Resting heart rate / Resting oxygen saturation / Resting systolic blood pressure: mean ± SD; for Resting oxygen saturation, change: p 0.002 vs placebo; for Resting diastolic blood pressure, change: p 0.003 vs placebo; for Anaerobic threshold VE/VCO2, change: p 0.011 vs placebo
Description: Exercise testing can include assessment of VO2 values during maximal effort or at the ventilator anaerobic threshold (VAT). VO2 max, or maximal oxygen consumption, refers to the maximum amount of oxygen that an individual can utilize during intense exercise. This measurement is generally considered a reliable indicator of cardiovascular fitness and aerobic endurance. The more oxygen a person can use during high level exercise, the more energy that person can produce. This test has been the standard for cardiorespiratory fitness because muscles need oxygen for prolonged (aerobic) exercise; blood carries oxygen to the muscles and the heart must pump adequate amounts of blood to meet the demands of aerobic exercise.
(§1) VO2 is often measured by putting a mask on a subject, and measuring the volume and gas concentrations of inhaled and expired air. This measurement is often used in both clinical settings and research and is considered the most accurate. Testing commonly involves either exercising on a treadmill or riding a cycle ergometer at increasing intensity until exhaustion, and is designed to provide readings at a maximal effort of the subject and/or at the subject's anaerobic threshold.
Exercise testing can include assessment of VO2 values during maximal effort or at ventilator anaerobic threshold (“VAT”). VO2 max (“peak VO2”), or maximal (“peak”) oxygen consumption, refers to the maximum amount of oxygen that an individual can utilize during intense exercise. This measurement is generally considered a reliable indicator of cardiovascular fitness and aerobic endurance. Theoretically, the more oxygen a person can use during exercise, the more energy that person can produce. This test is often used for cardiorespiratory fitness because muscles need oxygen for prolonged (aerobic) exercise; blood carries oxygen to the muscles and the heart must pump adequate amounts of blood to meet the demands of aerobic exercise. However, while peak VO2 may be useful as a surrogate for many cardiovascular disease states, it may not be as relevant an endpoint after the Fontan operation. In this unique physiology, central venous pressure, rather than right ventricular contraction (pumping), is the primary driver of transpulmonary blood flow and, therefore, cardiac output. Gewillig M and Goldberg D J. Failure of the fontan circulation. Heart Fail Clin. 10(1):105-116 (January 2014); Egbe A C, Connolly H M, Miranda W R, Ammash N M, Hagler D J, Veldtman G R and Borlaug B A. Hemodynamics of Fontan Failure: The Role of Pulmonary Vascular Disease. Circ Heart Fail. 10(12): e004515 (September 2017); Gewillig M, Brown S C, Eyskens B, Heying R, Ganame J, Budts W, La Gerche A and Gorenflo M. The Fontan circulation: who controls cardiac output?Interact Cardiovasc Thorac Surg. 10(3):428-433 (March 2010); and Goldberg D J, Avitabile C M, McBride M G and Paridon S M. Exercise capacity in the Fontan circulation. Cardiol Young. 23(6):824-830 (December 2013). As the demand for cardiac output increases with exertion, central venous pressure in the Fontan circulation must rise to meet that demand, but eventually reaches a critical ceiling beyond which it can rise no further. Navaratnam D, Fitzsimmons S, Grocott M, Rossiter H B, Emmanuel Y, Diller G P, Gordon-Walker T, Jack S, Sheron N, Pappachan J, Pratap J N, Vettukattil J J and Veldtman G. Exercise-Induced Systemic Venous Hypertension in the Fontan Circulation. Am J Cardiol. 117(10):1667-1671 (May 15, 2016).
as §1, with “research and has been considered the” for “research and is considered the”, “anaerobic threshold. […]” for “anaerobic threshold.”

[2] = tested on: adolescents with Fontan physiology; test: FUEL trial: safety, adverse event reports; format: in vivo, human
Description: The primary outcome was the change in oxygen consumption at peak exercise (max or peak VO2) from baseline to the 26-week visit. Secondary exercise outcomes included change in additional measures at maximal exertion, as well as change in measures of submaximal exercise at the ventilatory anaerobic threshold (VAT). The primary outcome for clinical secondary aims included change in myocardial performance index (MPI), an echocardiographically-derived measure of systolic and diastolic ventricular function, change in log-transformed reactive hyperemia index (lnRHI), a PAT-derived measure of peripheral vascular function, and change in log-transformed serum BNP level. Safety was monitored through adverse event reports, which were collected according to a pre-specified protocol of study coordinator outreach, and through ad hoc patient and family communication with members of the study team at each site.
The primary outcome for clinical secondary aims included the between group differences in change in myocardial performance index (MPI), an echocardiographically-derived measure of systolic and diastolic ventricular function, change in log-transformed reactive hyperemia index (lnRHI), a PAT-derived measure of peripheral vascular function, and change in log-transformed serum BNP level. Measurements for each of these secondary outcomes were performed at core labs. Safety was monitored through adverse event reports, which were collected according to a pre-specified protocol of study coordinator outreach, and through ad hoc patient and family communication with members of the study team at each site.

[3] = 87.5 mg twice daily, Change baseline to 26-week
[4] = 87.5 mg twice daily, Change baseline to 26-week, listed as udenafil
[5] = 87.5 mg twice daily, baseline to 26-week

`CCCOc1ccc(S(=O)(=O)NCCC2CCCN2C)cc1-c1nc2c(CCC)nn(C)c2c(=O)[nH]1` (centres unmarked) [Udenafil, udenafil] was tested, and the “Multiple measures of exercise performance at the ventilatory anaerobic threshold, udenafil vs placebo” value ([1]; 87.5 mg twice daily) was “statistically significant improvements”, the “Anaerobic threshold VE/VCO2” value ([1]; 87.5 mg twice daily, 26-week) was 33.6 ± 4.8 and the “Anaerobic threshold oxygen consumption” value ([1]; 87.5 mg twice daily, 26-week) was 1059 ± 292 mL/min. The Anaerobic threshold work ([1]; 87.5 mg twice daily, 26-week) was 69.2 ± 26 W, the “Peak exercise heart rate” value ([1]; 87.5 mg twice daily, 26-week) was 165 ± 20 bpm and the “Peak exercise minute ventilation” value ([1]; 87.5 mg twice daily, 26-week) was 73 ± 22 L/min. For the same molecule, the “Peak exercise oxygen consumption” value ([1]; 87.5 mg twice daily, 26-week) was 1606 ± 452 mL/min, the “Peak exercise oxygen saturation” value ([1]; 87.5 mg twice daily, 26-week) was 89.6 ± 4.9% and the “Peak exercise respiratory rate” value ([1]; 87.5 mg twice daily, 26-week) was 50 ± 12 breaths/min. The “Peak exercise work rate” value ([1]; 87.5 mg twice daily, 26-week) was 124 ± 32 W, the “Resting diastolic blood pressure” value ([1]; 87.5 mg twice daily, 26-week) was 65.3 ± 9.9 mmHg and the Resting heart rate ([1]; 87.5 mg twice daily, 26-week) was 86.6 ± 15.4 bpm. The Resting oxygen saturation ([1]; 87.5 mg twice daily, 26-week) was 93.3 ± 3.5%, the “Resting systolic blood pressure” value ([1]; 87.5 mg twice daily, 26-week) was 110.5 ± 12.0 mmHg and the “Anaerobic threshold VE/VCO2” value ([1]; 87.5 mg twice daily, Baseline) was 34.3 ± 4.9. For the same molecule, the “Anaerobic threshold oxygen consumption” value ([1]; 87.5 mg twice daily, Baseline) was 1039 ± 301 mL/min, the Anaerobic threshold work ([1]; 87.5 mg twice daily, Baseline) was 66.2 ± 26 W and the “Peak exercise heart rate” value ([1]; 87.5 mg twice daily, Baseline) was 165 ± 20 bpm. For the same molecule, the “Peak exercise minute ventilation” value ([1]; 87.5 mg twice daily, Baseline) was 71 ± 21 L/min, the “Peak exercise oxygen consumption” value ([1]; 87.5 mg twice daily, Baseline) was 1562 ± 437 mL/min and the “Peak exercise oxygen saturation” value ([1]; 87.5 mg twice daily, Baseline) was 89.2 ± 5.3%. For the same molecule, the “Peak exercise respiratory rate” value ([1]; 87.5 mg twice daily, Baseline) was 51 ± 11 breaths/min, the “Peak exercise work rate” value ([1]; 87.5 mg twice daily, Baseline) was 120 ± 32 W and the “Resting diastolic blood pressure” value ([1]; 87.5 mg twice daily, Baseline) was 68.4 ± 9.5 mmHg. For the same molecule, the Resting heart rate ([1]; 87.5 mg twice daily, Baseline) was 87.5 ± 15.3 bpm, the Resting oxygen saturation ([1]; 87.5 mg twice daily, Baseline) was 92.8 ± 3.9% and the “Resting systolic blood pressure” value ([1]; 87.5 mg twice daily, Baseline) was 112.3 ± 12.1 mmHg. The “Resting oxygen saturation, change” value [1, 3] was 0.5 ± 2.4%, the “Resting oxygen saturation, change” value [1, 4] was “+0.5%” and the “Resting diastolic blood pressure, change” value [1, 3] was −2.9 ± 9.7 mmHg. The “Resting diastolic blood pressure, change” value [1, 4] was −2.9 mmHg, the “Anaerobic threshold VE/VCO2, change” value [1, 3] was −0.76 ± 3.6^ and the “Anaerobic threshold VE/VCO2, change” value [1, 4] was −0.8. The “Anaerobic threshold oxygen consumption (VO2 at VAT), change” value ([1]; 87.5 mg twice daily, Change baseline to 26-week, p 0.023 vs placebo) was 29.7 ± 177 mL/min, the “Anaerobic threshold work (work rate at VAT), change” value ([1]; 87.5 mg twice daily, Change baseline to 26-week, p 0.029 vs placebo) was 3.5 ± 15 W and the “Peak exercise oxygen consumption (peak VO2, VO2 max), change” value ([1]; 87.5 mg twice daily, Change baseline to 26-week, p 0.071 vs placebo) was 44 ± 245 mL/min. For the same molecule, the “Resting systolic blood pressure, change” value ([1]; 87.5 mg twice daily, Change baseline to 26-week, p 0.18 vs placebo) was −1.8 ± 12.2 mmHg, the “Resting heart rate, change” value ([1]; 87.5 mg twice daily, Change baseline to 26-week, p 0.78 vs placebo) was −0.9 ± 12.7 bpm and the “Peak exercise work rate, change” value ([1]; 87.5 mg twice daily, Change baseline to 26-week, p 0.85 vs placebo) was 3.2 ± 14 W. The “VE/VCO2 measured at VAT, decreased by, percent” value [1, 5] was 2.1%, the “Work rate at VAT improved by, percent” value [1, 5] was 5.5% and 5.2% and the “Change in resting heart rate, respiratory rate, or systolic blood pressure, udenafil vs placebo” value ([1]; baseline to 26-week) was “no difference”. The “Diastolic blood pressure in the udenafil group, in words” value ([1]; baseline to 26-week) was “small but statistically significant decrease”, the “Resting oxygen saturation in the udenafil group, in words” value ([1]; baseline to 26-week) was “small but statistically significant increase” and the “Oxygen consumption at peak exercise (peak VO2), difference udenafil vs placebo” value ([1]; p=0.071) was “did not reach statistical significance; also recorded: not associated with a statistically significant improvement”. For the same molecule, the “Deaths in the study cohort” value ([2]; FUEL trial) was “no deaths”, the “Non-serious adverse event: Dizziness, participants” value ([2]; human, in vivo, 6 months) was 16 (8.0) n (%) and the “Non-serious adverse event: Epistaxis, participants” value ([2]; human, in vivo, 6 months) was 21 (10.5) n (%). The “Non-serious adverse event: Flushing, participants” value ([2]; human, in vivo, 6 months) was 32 (16.0) n (%), the “Non-serious adverse event: Headache, participants” value ([2]; human, in vivo, 6 months) was 79 (39.5) n (%) and the “Non-serious adverse event: Nausea/vomiting, participants” value ([2]; human, in vivo, 6 months) was 31 (15.5) n (%). The “Participants who experienced a serious adverse event” value ([2]; human, in vivo, 6 months) was 14, the “Serious adverse events with possible, probable, or definite relationship to study drug, number of events” value ([2]; human, in vivo, 6 months) was 3 and the “Headache, facial flushing, abdominal pain, epistaxis, and erection (male participants), frequency vs placebo” value ([2]; in vivo) was “more common in the udenafil group”. For the same molecule, the Priapism ([2]; in vivo) was “no reported episodes of priapism” and the “Non-serious adverse event: Increased erection, participants” value ([2]; male, human, in vivo, 6 months) was 13 (11.7) n (%).
